We go through 58 molecules from the METLIN SMRT retention time set (Domingo-Almenara et al. 2019).

Molecules are shown by their SMILES.

The series is described as follows: gradient 5% acetonitrile 3 min, to 50% in 2 min, to 85% in 15 min, held 3 min, 100 µL/min. The following applies: column: Zorbax Extend-C18 2.1 x 50 mm; eluents: water / acetonitrile, 0.1% formic acid. Summed up: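 Retention times of pure standards were taken from adduct peaks that were selected by computer and manually inspected. Over 3 months, mixtures of ~100 molecules were run by HPLC–quadrupole time-of-flight mass spectrometry in positive and negative ionization mode. The Zorbax Extend-C18 column (2.1 × 50 mm, 1.8 μm) ran at 100 μL/min in water and acetonitrile, each containing 0.1% formic acid, with 40 μL dead volume and 900 μL dwell volume.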
In turn, `CCOC(=O)c1c(C)[nH]c(C(=O)N2CCC(CC(=O)NCc3ccccc3)CC2)c1C` yielded an RP-LC retention time of 762 s.

`COc1ccc(-c2ccnc3cc(C(=O)Nc4ccc5c(c4)OCO5)nn23)cc1OC`: the RP-LC retention time is 848 s.

On to `Cc1ccc(C)c(NC(=O)C2CCN(S(=O)(=O)c3ccc4c(c3)sc(=O)n4C(C)C)CC2)c1`, for which the RP-LC retention time was 1070 s.

`O=C(Nc1nnc(SCC(=O)N2CCCc3ccccc32)s1)c1cccs1`: the RP-LC retention time was determined as 827 s.

`CC(=O)N1CCc2ccccc2C1C(=O)NC(C)C` (stereo not drawn) gave an RP-LC retention time of 672 s.

The molecule `CC(Oc1ccccc1)c1nc(-c2ccc3nnn(C)c3c2)no1` (stereo not drawn) registered an RP-LC retention time of 1060 s.

`CCN(c1ccc(OC)cc1)S(=O)(=O)c1ccc2c(c1)CCCC(=O)N2` yielded an RP-LC retention time of 804 s.

Molecule `CC(C)c1cc(C(=O)Nc2cccc(C#N)c2)nc2ccnn12` yielded an RP-LC retention time of 1030 s.

On to `O=C(NS(=O)(=O)c1ccc(F)cc1)c1ccccc1`, for which the RP-LC retention time is 744 s.

In the case of `Cc1sc(-c2nc(C(C)C)cs2)cc1S(=O)(=O)Nc1cc(F)ccc1F`, the RP-LC retention time worked out at 1220 s.

As to `Cc1ccc(CNC(=O)C2CCCN(c3nc4c(s3)c(C)nn4-c3ccc(F)cc3)C2)o1` (stereo not drawn), the RP-LC retention time was found to be 1100 s.

Turning to `CNC(=O)c1ccc(Nc2c(-c3ccccc3)nc3cnccn23)cc1`, the RP-LC retention time came out at 644 s.

In turn, `CCCn1cc(CCNS(=O)(=O)c2cccc(Cl)c2C)c2cccnc21` yielded an RP-LC retention time of 914 s.

In the case of `Cc1nc2cc3c(cc2n1CC(=O)NCc1ccccc1Cl)OCCO3`, the RP-LC retention time stood at 645 s.

`Cc1ccccc1C(=O)CC1(O)C(=O)Nc2ccc(Br)cc21` (stereo not drawn) showed an RP-LC retention time of 804 s.

As for `CCNC(=O)C1CCN(c2nc3ccc(-c4cccc(F)c4)nc3s2)CC1`, the RP-LC retention time worked out at 905 s.

Molecule `CCOC(=O)CNC(=O)N1CCN(Cc2nc3cccnc3n2-c2ccccc2)CC1` registered an RP-LC retention time of 585 s.

For `COc1ccc(-c2nnc(-c3ccc(C)c(S(N)(=O)=O)c3)o2)cc1OC`, the RP-LC retention time worked out at 731 s.

With `Cc1cc(C(=O)Nc2nnc(-c3cccs3)o2)c(C)o1`, the RP-LC retention time was determined as 706 s.

`O=C(Cn1cccc1-c1nc(-c2ccc3c(c2)OCO3)no1)Nc1cccc(Cl)c1`: the RP-LC retention time turned out to be 1060 s.

Take `COCCCNC(=O)c1cc(-c2ccc(C)cc2)nc2n[nH]c(-c3ccc(C)cc3)c12`: the RP-LC retention time came to 881 s.

Regarding `Cc1nn(-c2ccccc2)c(C)c1S(=O)(=O)N1CCC(C(=O)Nc2ccc(Cl)cc2F)CC1`, the RP-LC retention time was 1070 s.

The molecule `COCCOCc1nc(C2CCN(C(=O)NC3CCCCC3)CC2)no1` yielded an RP-LC retention time of 709 s.

As for `Cc1cc(C)nc(N2CCN(c3cccc(Cl)c3)CC2)n1`, the RP-LC retention time amounted to 1060 s.

For `COc1cc2c3cc1Oc1c(OC)c(OC)cc4c1C(Cc1ccc(cc1)Oc1cc(ccc1O)CC3N(C)CC2)N(C)CC4` (stereo not drawn), the RP-LC retention time came out at 579 s.

Turning to `Cc1ccc(NC(=O)CN2C(=O)C3CCCCN3c3ccc(S(=O)(=O)N(C)C)cc32)cc1` (stereo not drawn), the RP-LC retention time is 943 s.

`Cc1cc(C)c(S(=O)(=O)N2CCc3c(c(-c4nnc(-c5ccccc5F)o4)nn3C)C2)c(C)c1` came in with an RP-LC retention time of 1070 s.

In the case of `CCc1nc(-c2cccc(-c3noc(COc4ccccc4)n3)c2)cs1`, the RP-LC retention time was 1300 s.

`Cc1noc(C)c1CCC(=O)N1CCc2nn(CC#N)c(=O)n2CC1` gave an RP-LC retention time of 630 s.

As for `CSc1cccc(NC(=O)c2[nH]c3cc(C)sc3c2CN2CCOCC2)c1`, the RP-LC retention time worked out at 733 s.

`COC(=O)c1sccc1NC(=O)N1CCCn2nc(-c3ccc(OC)cc3)cc2C1` yielded an RP-LC retention time of 970 s.

Molecule `CCOc1ccccc1NC(=O)N1CCN(c2cc(C)nc(N3CCOCC3)n2)CC1` gave an RP-LC retention time of 631 s.

`COc1cccc(NC(=O)NCC2CC(=O)N(Cc3ccc(F)cc3)C2)c1OC` (stereo not drawn) came in with an RP-LC retention time of 695 s.

`O=C(N[C@H]1C[C@@H]2C[C@H]1N(C(=O)c1ccccn1)C2)c1ccccc1` registered an RP-LC retention time of 622 s.

`CCc1cccc(NC(=O)CCc2c(C)nc3nc(-c4cc(OC)cc(OC)c4)nn3c2C)c1` registered an RP-LC retention time of 970 s.

The molecule `Cc1ccc(S(=O)(=O)N2CCCC(Cn3c(C)nc4cccnc43)C2)cc1` (stereo not drawn) had an RP-LC retention time of 707 s.

Regarding `Cc1cc(C)cc(N2CCC(NC(=O)c3cccs3)C2=O)c1` (stereo not drawn), the RP-LC retention time came out at 842 s.

In turn, `COc1ccccc1NC(=O)CSc1ccc(N2CCCC(C(=O)NC3CC3)C2)nn1` (stereo not drawn) showed an RP-LC retention time of 618 s.

`CN1CCN(C(CNC(=O)C(=O)Nc2ccc(Cl)cc2)c2ccc3c(c2)OCO3)CC1` (stereo not drawn) showed an RP-LC retention time of 716 s.

`Cc1ccc(-c2cc3c4nnc(SCC(=O)Nc5ccc(F)cc5Cl)n4ccn3n2)cc1C` gave an RP-LC retention time of 1010 s.

Molecule `O=C(NC1CCCCC1)N1CCC(c2noc(-c3cccnc3)n2)C1` (stereo not drawn) yielded an RP-LC retention time of 749 s.

As to `CN(C)C(=O)c1cc2c(s1)CCC(C(=O)Nc1ccc3c(c1)OCCO3)C2` (stereo not drawn), the RP-LC retention time amounted to 764 s.

The molecule `O=C(NC1CCN(c2cc(-c3ccc(Cl)cc3)[nH]n2)C1)c1cccc(F)c1` (stereo not drawn) gave an RP-LC retention time of 721 s.

Regarding `O=C(c1cn(-c2ccc(-c3nc(C4CC4)no3)cn2)cn1)N1CCCCCC1`, the RP-LC retention time turned out to be 928 s.

`Cc1nn(-c2cc(N3CCOCC3)ncn2)c(C)c1CCC(=O)NCCc1ccco1` yielded an RP-LC retention time of 734 s.

For the molecule `CC(C)C(=O)Nc1ccc(C2(C(=O)Nc3ccc(N4CCOCC4)cc3)CCCCC2)cc1`, the RP-LC retention time was 888 s.

The molecule `Cc1nnc2sc(SCc3ccc([N+](=O)[O-])cc3)nn2c1=O` had an RP-LC retention time of 697 s.

On to `Cc1nc(-c2csc(S(=O)(=O)N3CCCC(C(=O)Nc4cc(F)ccc4F)C3)c2)no1` (stereo not drawn), for which the RP-LC retention time was 996 s.

`O=C(CCn1nnc2ccccc2c1=O)NCCn1ncccc1=O`: the RP-LC retention time worked out at 584 s.

Consider `CN(C)c1cc2c(cc1NC(=O)Cc1ccccc1Cl)n(C)c(=O)c(=O)n2C`, for which the RP-LC retention time was 754 s.

In turn, `Cc1ccc(-c2noc(CN3N=NC4C(=O)N(c5ccc6c(c5)CCC6)C(=O)C43)n2)cc1` (stereo not drawn) came in with an RP-LC retention time of 1110 s.

`Cc1oc2cc(OCC#N)ccc2c(=O)c1-c1ccc(Cl)cc1` registered an RP-LC retention time of 926 s.

Molecule `CCOc1ccc(OCC)c(NC(=O)C2CC(=O)N(c3cccc(NC(C)=O)c3)C2)c1` (stereo not drawn) gave an RP-LC retention time of 772 s.

As for `COc1ccc(S(=O)(=O)N2CCCC(C(=O)Nc3ccc(Cl)c(Cl)c3)C2)cc1C` (stereo not drawn), the RP-LC retention time stood at 1180 s.

Molecule `Cc1ccn2cc(C(=O)NCCN3CCc4ccccc4C3)nc2c1` yielded an RP-LC retention time of 565 s.

For `O=C(Cc1ccccc1F)NCCc1nc(-c2ccc3c(c2)OCO3)n[nH]1`, the RP-LC retention time was determined as 687 s.

For the molecule `Cc1ccc(CN2CCN(C3CCN(S(=O)(=O)c4ccc(F)c(Cl)c4)CC3)C(=O)C2=O)cc1`, the RP-LC retention time was determined as 926 s.

As for `Cc1ccc(CNC(=O)C2(C)Cn3nc(C(=O)NCCC(C)C)cc3C(=O)N2C)cc1` (stereo not drawn), the RP-LC retention time amounted to 754 s.
